According to ChEMBL document CHEMBL5303573, “Mapping human microbiome drug metabolism by gut bacteria and their genes” (Nature, 2019):

Experiments:
[1] = The drug is tested on Bifidobacterium longum subsp. Infantis strain: CCUG52486 for biotransformation. The drug concentrations were measured before and after a 12-h incubation by liquid-chromatography-coupled mass spectrometry (LC–MS); details: 2 µM
[2] = The drug is tested on Bacteroides coprophilus strain: DSM18228 for biotransformation. The drug concentrations were measured before and after a 12-h incubation by liquid-chromatography-coupled mass spectrometry (LC–MS); details: 2 µM
[3] = The drug is tested on Bacteroides dorei strain: DSM17855 for biotransformation. The drug concentrations were measured before and after a 12-h incubation by liquid-chromatography-coupled mass spectrometry (LC–MS); details: phocaeicola dorei, 2 µM
[4] = The drug is tested on Bacteroides sp. WH2 strain: WH2 for biotransformation. The drug concentrations were measured before and after a 12-h incubation by liquid-chromatography-coupled mass spectrometry (LC–MS); details: bacteroides sp. wh2, 12 h, 2 µM
[5] = The drug is tested on Anaerococcus hydrogenalis strain: DSM7454 for biotransformation. The drug concentrations were measured before and after a 12-h incubation by liquid-chromatography-coupled mass spectrometry (LC–MS); details: 2 µM
[6] = The drug is tested on Anaerotruncus colihominis strain: DSM17241 for biotransformation. The drug concentrations were measured before and after a 12-h incubation by liquid-chromatography-coupled mass spectrometry (LC–MS); details: 2 µM
[7] = The drug is tested on Clostridium sp. strain: fecal isolate for biotransformation. The drug concentrations were measured before and after a 12-h incubation by liquid-chromatography-coupled mass spectrometry (LC–MS); details: 2 µM
[8] = The drug is tested on Coprococcus comes strain: ATCC27758 for biotransformation. The drug concentrations were measured before and after a 12-h incubation by liquid-chromatography-coupled mass spectrometry (LC–MS); format: ADME; parameters: dose 2 uM, timepoint 0 vs 12 hours; details: 2 µM
[9] = The drug is tested on Enterococcus faecalis strain: V583 for biotransformation. The drug concentrations were measured before and after a 12-h incubation by liquid-chromatography-coupled mass spectrometry (LC–MS); details: 2 µM
[10] = The drug is tested on Ruminococcus gnavus strain: ATCC29149 for biotransformation. The drug concentrations were measured before and after a 12-h incubation by liquid-chromatography-coupled mass spectrometry (LC–MS); details: mediterraneibacter gnavus, 2 µM
[11] = The drug is tested on Ruminococcus lactaris strain: ATCC29176 for biotransformation. The drug concentrations were measured before and after a 12-h incubation by liquid-chromatography-coupled mass spectrometry (LC–MS); details: 2 µM
[12] = The drug is tested on Ruminococcus torques strain: ATCC27756 for biotransformation. The drug concentrations were measured before and after a 12-h incubation by liquid-chromatography-coupled mass spectrometry (LC–MS); format: ADME; parameters: dose 2 uM, timepoint 0 vs 12 hours; details: 2 µM
[13] = The drug is tested on Enterobacter cancerogenus strain: ATCC35316 for biotransformation. The drug concentrations were measured before and after a 12-h incubation by liquid-chromatography-coupled mass spectrometry (LC–MS); details: 2 µM
[14] = The drug is tested on Providencia stuartii strain: ATCC25827 for biotransformation. The drug concentrations were measured before and after a 12-h incubation by liquid-chromatography-coupled mass spectrometry (LC–MS); details: 2 µM
[15] = bifidobacterium adolescentis, 12 h, 2 µM
Description: The drug is tested on Bifidobacterium adolescentis strain: ATCC 15703 for biotransformation. The drug concentrations were measured before and after a 12-h incubation by liquid-chromatography-coupled mass spectrometry (LC–MS)

[16] = bacteroides eggerthii, 12 h, 2 µM
Description: The drug is tested on Bacteroides eggerthii strain: DSM20697 for biotransformation. The drug concentrations were measured before and after a 12-h incubation by liquid-chromatography-coupled mass spectrometry (LC–MS)

[17] = anaerostipes sp., 12 h, 2 µM
Description: The drug is tested on Anaerostipes sp. strain: fecal isolate for biotransformation. The drug concentrations were measured before and after a 12-h incubation by liquid-chromatography-coupled mass spectrometry (LC–MS)

[18] = enterocloster bolteae, 12 h, 2 µM
Description: The drug is tested on Clostridium bolteae strain: ATCCBAA-613 for biotransformation. The drug concentrations were measured before and after a 12-h incubation by liquid-chromatography-coupled mass spectrometry (LC–MS)

[19] = limosilactobacillus reuteri cf48-3a, 12 h, 2 µM
Description: The drug is tested on Lactobacillus reuteri CF48-3A strain: BEI HM-102 for biotransformation. The drug concentrations were measured before and after a 12-h incubation by liquid-chromatography-coupled mass spectrometry (LC–MS)

[20] = bacteroides thetaiotaomicron, 12 h, 2 µM
Description: The drug is tested on Bacteroides thetaiotaomicron strain: 7330 for biotransformation. The drug concentrations were measured before and after a 12-h incubation by liquid-chromatography-coupled mass spectrometry (LC–MS)

## COc1ccc(/C=C/C(=O)Nc2ccccc2C(=O)O)cc1OC
[1]
  Bacterial Biotransformation: Compound NOT metabolized
[2]
  Bacterial Biotransformation: Compound NOT metabolized
[3]
  Bacterial Biotransformation: Compound NOT metabolized
[4]
  Bacterial Biotransformation: Compound metabolized
[5]
  Bacterial Biotransformation: Compound metabolized
[6]
  Bacterial Biotransformation: Compound NOT metabolized
[7]
  Bacterial Biotransformation: Compound NOT metabolized
[8]
  Bacterial Biotransformation: Compound NOT metabolized
[9]
  Bacterial Biotransformation: Compound NOT metabolized
[10]
  Bacterial Biotransformation: Compound NOT metabolized
[11]
  Bacterial Biotransformation: Compound NOT metabolized
[12]
  Bacterial Biotransformation: Compound NOT metabolized
[13]
  Bacterial Biotransformation: Compound NOT metabolized
[14]
  Bacterial Biotransformation: Compound NOT metabolized
[15]
  Bacterial Biotransformation: Compound NOT metabolized
[16]
  Bacterial Biotransformation: Compound NOT metabolized
[17]
  Bacterial Biotransformation: Compound NOT metabolized
[18]
  Bacterial Biotransformation: Compound NOT metabolized
[19]
  Bacterial Biotransformation: Compound NOT metabolized

## CCCCC(=O)O[C@]1(C(=O)CO)[C@@H](C)C[C@H]2[C@@H]3CCC4=CC(=O)C=C[C@]4(C)[C@@]3(F)[C@@H](O)C[C@@]21C [BETAMETHASONE VALERATE]
[3]
  Bacterial Biotransformation: Compound metabolized
[4]
  Bacterial Biotransformation: Compound NOT metabolized
[5]
  Bacterial Biotransformation: Compound NOT metabolized
[6]
  Bacterial Biotransformation: Compound NOT metabolized
[7]
  Bacterial Biotransformation: Compound metabolized
[8]
  Bacterial Biotransformation: Compound metabolized
[9]
  Bacterial Biotransformation: Compound NOT metabolized
[11]
  Bacterial Biotransformation: Compound NOT metabolized
[13]
  Bacterial Biotransformation: Compound NOT metabolized
[14]
  Bacterial Biotransformation: Compound NOT metabolized
[16]
  Bacterial Biotransformation: Compound metabolized
[20]
  Bacterial Biotransformation: Compound metabolized
[17]
  Bacterial Biotransformation: Compound NOT metabolized
[18]
  Bacterial Biotransformation: Compound metabolized
[19]
  Bacterial Biotransformation: Compound metabolized

## NC(CO)(CO)CO.O=C(c1ccccc1)c1ccc2n1CCC2C(=O)O (stereo not drawn) [KETOROLAC TROMETHAMINE]
[1]
  Bacterial Biotransformation: Compound NOT metabolized
[3]
  Bacterial Biotransformation: Compound metabolized
[4]
  Bacterial Biotransformation: Compound NOT metabolized
[5]
  Bacterial Biotransformation: Compound NOT metabolized
[6]
  Bacterial Biotransformation: Compound NOT metabolized
[7]
  Bacterial Biotransformation: Compound metabolized
[9]
  Bacterial Biotransformation: Compound NOT metabolized
[10]
  Bacterial Biotransformation: Compound metabolized
[11]
  Bacterial Biotransformation: Compound NOT metabolized
[13]
  Bacterial Biotransformation: Compound NOT metabolized
[14]
  Bacterial Biotransformation: Compound NOT metabolized
[15]
  Bacterial Biotransformation: Compound NOT metabolized
[16]
  Bacterial Biotransformation: Compound NOT metabolized
[17]
  Bacterial Biotransformation: Compound NOT metabolized
[18]
  Bacterial Biotransformation: Compound NOT metabolized
[19]
  Bacterial Biotransformation: Compound NOT metabolized

## OC(c1cc(C(F)(F)F)nc2c(C(F)(F)F)cccc12)C1CCCCN1 (stereo not drawn) [MEFLOQUINE]
[1]
  Bacterial Biotransformation: Compound NOT metabolized
[2]
  Bacterial Biotransformation: Compound NOT metabolized
[3]
  Bacterial Biotransformation: Compound NOT metabolized
[4]
  Bacterial Biotransformation: Compound NOT metabolized
[8]
  Bacterial Biotransformation: Compound NOT metabolized
[9]
  Bacterial Biotransformation: Compound NOT metabolized
[10]
  Bacterial Biotransformation: Compound NOT metabolized
[13]
  Bacterial Biotransformation: Compound NOT metabolized
[14]
  Bacterial Biotransformation: Compound NOT metabolized
[15]
  Bacterial Biotransformation: Compound NOT metabolized
[16]
  Bacterial Biotransformation: Compound NOT metabolized
[20]
  Bacterial Biotransformation: Compound NOT metabolized
[17]
  Bacterial Biotransformation: Compound NOT metabolized
[18]
  Bacterial Biotransformation: Compound NOT metabolized
[19]
  Bacterial Biotransformation: Compound NOT metabolized

## CC12CC3CC(C)(C1)CC(N)(C3)C2 [MEMANTINE]
[1]
  Bacterial Biotransformation: Compound NOT metabolized
[2]
  Bacterial Biotransformation: Compound NOT metabolized
[3]
  Bacterial Biotransformation: Compound NOT metabolized
[4]
  Bacterial Biotransformation: Compound NOT metabolized
[5]
  Bacterial Biotransformation: Compound NOT metabolized
[6]
  Bacterial Biotransformation: Compound NOT metabolized
[7]
  Bacterial Biotransformation: Compound NOT metabolized
[8]
  Bacterial Biotransformation: Compound NOT metabolized
[9]
  Bacterial Biotransformation: Compound NOT metabolized
[10]
  Bacterial Biotransformation: Compound NOT metabolized
[12]
  Bacterial Biotransformation: Compound NOT metabolized
[13]
  Bacterial Biotransformation: Compound NOT metabolized
[14]
  Bacterial Biotransformation: Compound NOT metabolized
[15]
  Bacterial Biotransformation: Compound NOT metabolized
[16]
  Bacterial Biotransformation: Compound NOT metabolized
[20]
  Bacterial Biotransformation: Compound NOT metabolized
[17]
  Bacterial Biotransformation: Compound NOT metabolized
[18]
  Bacterial Biotransformation: Compound NOT metabolized

## COc1c2occc2cc2ccc(=O)oc12 [METHOXSALEN]
[3]
  Bacterial Biotransformation: Compound metabolized
[5]
  Bacterial Biotransformation: Compound NOT metabolized
[6]
  Bacterial Biotransformation: Compound NOT metabolized
[7]
  Bacterial Biotransformation: Compound metabolized
[8]
  Bacterial Biotransformation: Compound metabolized
[9]
  Bacterial Biotransformation: Compound NOT metabolized
[10]
  Bacterial Biotransformation: Compound metabolized
[12]
  Bacterial Biotransformation: Compound NOT metabolized
[13]
  Bacterial Biotransformation: Compound NOT metabolized
[15]
  Bacterial Biotransformation: Compound NOT metabolized
[16]
  Bacterial Biotransformation: Compound metabolized
[17]
  Bacterial Biotransformation: Compound metabolized
[18]
  Bacterial Biotransformation: Compound metabolized
[19]
  Bacterial Biotransformation: Compound NOT metabolized

## COC(=O)C(c1ccccc1)C1CCCCN1 (stereo not drawn) [METHYLPHENIDATE]
[1]
  Bacterial Biotransformation: Compound NOT metabolized
[3]
  Bacterial Biotransformation: Compound NOT metabolized
[4]
  Bacterial Biotransformation: Compound NOT metabolized
[6]
  Bacterial Biotransformation: Compound NOT metabolized
[7]
  Bacterial Biotransformation: Compound metabolized
[8]
  Bacterial Biotransformation: Compound NOT metabolized
[9]
  Bacterial Biotransformation: Compound NOT metabolized
[10]
  Bacterial Biotransformation: Compound NOT metabolized
[11]
  Bacterial Biotransformation: Compound NOT metabolized
[12]
  Bacterial Biotransformation: Compound NOT metabolized
[13]
  Bacterial Biotransformation: Compound NOT metabolized
[14]
  Bacterial Biotransformation: Compound NOT metabolized
[16]
  Bacterial Biotransformation: Compound NOT metabolized
[20]
  Bacterial Biotransformation: Compound NOT metabolized
[18]
  Bacterial Biotransformation: Compound NOT metabolized

## CC(C)(C)NCC(O)COc1cccc2c1CC(O)C(O)C2 (stereo not drawn) [NADOLOL]
[1]
  Bacterial Biotransformation: Compound NOT metabolized
[4]
  Bacterial Biotransformation: Compound NOT metabolized
[5]
  Bacterial Biotransformation: Compound NOT metabolized
[6]
  Bacterial Biotransformation: Compound NOT metabolized
[7]
  Bacterial Biotransformation: Compound NOT metabolized
[8]
  Bacterial Biotransformation: Compound NOT metabolized
[9]
  Bacterial Biotransformation: Compound NOT metabolized
[10]
  Bacterial Biotransformation: Compound NOT metabolized
[11]
  Bacterial Biotransformation: Compound NOT metabolized
[12]
  Bacterial Biotransformation: Compound NOT metabolized
[13]
  Bacterial Biotransformation: Compound NOT metabolized
[14]
  Bacterial Biotransformation: Compound NOT metabolized
[15]
  Bacterial Biotransformation: Compound NOT metabolized
[16]
  Bacterial Biotransformation: Compound NOT metabolized
[20]
  Bacterial Biotransformation: Compound NOT metabolized
[17]
  Bacterial Biotransformation: Compound NOT metabolized
[18]
  Bacterial Biotransformation: Compound NOT metabolized
[19]
  Bacterial Biotransformation: Compound NOT metabolized

## CCN(CC)CCNC(=O)c1cc(S(C)(=O)=O)ccc1OC [TIAPRIDE]
[1]
  Bacterial Biotransformation: Compound NOT metabolized
[3]
  Bacterial Biotransformation: Compound NOT metabolized
[4]
  Bacterial Biotransformation: Compound NOT metabolized
[5]
  Bacterial Biotransformation: Compound NOT metabolized
[6]
  Bacterial Biotransformation: Compound NOT metabolized
[7]
  Bacterial Biotransformation: Compound NOT metabolized
[8]
  Bacterial Biotransformation: Compound NOT metabolized
[9]
  Bacterial Biotransformation: Compound NOT metabolized
[10]
  Bacterial Biotransformation: Compound NOT metabolized
[11]
  Bacterial Biotransformation: Compound NOT metabolized
[12]
  Bacterial Biotransformation: Compound NOT metabolized
[13]
  Bacterial Biotransformation: Compound NOT metabolized
[14]
  Bacterial Biotransformation: Compound NOT metabolized
[15]
  Bacterial Biotransformation: Compound NOT metabolized
[20]
  Bacterial Biotransformation: Compound NOT metabolized
[17]
  Bacterial Biotransformation: Compound NOT metabolized
[18]
  Bacterial Biotransformation: Compound NOT metabolized
[19]
  Bacterial Biotransformation: Compound NOT metabolized
